According to patent US20250059180A1 (DONG WHA PHARM. CO., LTD., priority 2022, published 2025):
Where two headings read alike, the source gives them in different places.

Test system: Pfeiffer cells, lymphoma cells having EZH2 mutation (A677G)
Assay: Proliferation inhibition of cells of hematologic malignancies (CCK-8, 11 days)
Format: cell-based
Conditions: 11 days culture, read-out: Cell proliferation inhibitory effect (IC50)
Description: The growth inhibitory activity of 1,3-benzodioxole derivative compounds represented by chemical formula I of the present invention against Pfeiffer cells, which are lymphoma cells having EZH2 mutation (A677G), was evaluated.
Pfeiffer was cultured using RPMI1640 containing 10% fetal bovine serum. The cells were inoculated into wells of a 96-well culture dish at 10,000 cells each, and cultured for 11 days after treating with the test material for each concentration. For 11 days, the test material was replaced every three to four days. After culturing, the cells were treated with a cell counting kit-8 (CCK-8) reagent for each well, absorbance was measured at 450 nm, and IC50 values for cell proliferation were obtained through curve fitting of non-linear regression in the GraphPad program (GraphPad Prism 5.0 software).

| SMILES | IC50 | IC50 (Homo sapiens, Pfeiffer, 264 h) |
| --- | --- | --- |
| CCN1CCC(C2(C)Oc3c(-c4ccc(N5CCOCC5)nc4)cc(C(=O)NCc4c(SC)cc(C)[nH]c4=O)c(C)c3O2)CC1 (single isomer, unassigned) [Compound 67, 2-(1-ethylpiperidin-4-yl)-2,4-dimethyl-N-((6-methyl-4-(methylthio)-2-oxo-1,2-dihydropyridin-3-yl)methyl)-7-(6-morpholinopyridin-3-yl)benzo[d][1,3]dioxole-5-carboxamide] | ≥ 100 nM | – |
| CCN1CCC(C2(C)Oc3c(-c4cnc(N(C)CC)nc4)cc(C(=O)NCc4c(SC)cc(C)[nH]c4=O)c(C)c3O2)CC1 (single isomer, unassigned) [Compound 84, 7-(2-(ethyl(methyl)amino)pyrimidin-5-yl)-2-(1-ethylpiperidin-4-yl)-2,4-dimethyl-N-((6-methyl-4-(methylthio)-2-oxo-1,2-dihydropyridin-3-yl)methyl)benzo[d][1,3]dioxole-5-carboxamide] | ≥ 100 nM | – |
| CSc1cc(C)[nH]c(=O)c1CNC(=O)c1cc(-c2ccc(N3C[C@@H](C)O[C@@H](C)C3)nc2)c2c(c1C)OC(C)([C@H]1CC[C@H](N(C)C)CC1)O2 (stereo partly drawn) [Compound 1, 2-(trans-4-(dimethylamino)cyclohexyl)-7-(6-((2S,6R)-2,6-dimethylmorpholino)pyridin-3-yl)-2,4-dimethyl-N-((6-methyl-4-(methylthio)-2-oxo-1,2-dihydropyridin-3-yl)methyl)benzo[d][1,3]dioxole-5-carboxamide] | – | ≤ 10 nM |
| CSc1cc(C)[nH]c(=O)c1CNC(=O)c1cc(-c2ccc(N3C[C@@H](C)O[C@@H](C)C3)nc2)c2c(c1C)OC(C)([C@H]1CC[C@H](N3CC(OCC(F)(F)F)C3)CC1)O2 (stereo partly shown) [Compound 102] | – | 10 to 100 nM |
| CCN1CCN(c2ncc(-c3cc(C(=O)NCc4c(SC)cc(C)[nH]c4=O)c(C)c4c3OC(C)(C3CCN(CC(F)(F)F)CC3)O4)cn2)CC1 (single isomer, unassigned) [Compound 76, 7-(2-(4-ethylpiperazin-1-yl)pyrimidin-5-yl)-2,4-dimethyl-N-((6-methyl-4-(methylthio)-2-oxo-1,2-dihydropyridin-3-yl)methyl)-2-(1-(2,2,2-trifluoroethyl)piperidin-4-yl)benzo[d][1,3]dioxole-5-carboxamide] | ≤ 10 nM | – |
| CSc1cc(C)[nH]c(=O)c1CNC(=O)c1cc(-c2ccc(N3C[C@@H](C)O[C@@H](C)C3)nc2)c2c(c1C)OC(C)(C1CCN(C3CCCCC3)CC1)O2 (single isomer, unassigned) [Compound 53] | ≤ 10 nM | – |
| CCN1CCN(c2ncc(-c3cc(C(=O)NCc4c(SC)cc(C)[nH]c4=O)c(C)c4c3OC(C)(C3CCN(CC(F)(F)F)CC3)O4)cn2)CC1 (single isomer, unassigned) [Compound 77, 7-(2-(4-ethylpiperazin-1-yl)pyrimidin-5-yl)-2,4-dimethyl-N-((6-methyl-4-(methylthio)-2-oxo-1,2-dihydropyridin-3-yl)methyl)-2-(1-(2,2,2-trifluoroethyl)piperidin-4-yl)benzo[d][1,3]dioxole-5-carboxamide] | ≥ 100 nM | – |
| CSc1cc(C)[nH]c(=O)c1CNC(=O)c1cc(-c2ccc(N3C[C@@H](C)O[C@@H](C)C3)nc2)c2c(c1C)OC(C)(C1CCN(C(=O)C(F)(F)F)CC1)O2 (single isomer, unassigned) [Compound 60] | ≥ 100 nM | – |
| CSc1cc(C)[nH]c(=O)c1CNC(=O)c1cc(-c2cnc(N3C[C@@H](C)O[C@@H](C)C3)nc2)c2c(c1C)OC(C)([C@H]1CC[C@H](N(C)C)CC1)O2 (stereo partly drawn) [Compound 2, 2-(trans-4-(dimethylamino)cyclohexyl)-7-(2-((2S,6R)-2,6-dimethylaminomorpholino)pyrimidin-5-yl)-2,4-dimethyl-N-((6-methyl-4-(methylthio)-2-oxo-1,2-dihydropyridin-3-yl)methyl)benzo[d][1,3]dioxole-5-carboxamide] | – | ≤ 10 nM |
| CSc1cc(C)[nH]c(=O)c1CNC(=O)c1cc(-c2ccc(N3C[C@@H](C)O[C@@H](C)C3)nc2)c2c(c1C)OC(C)(C1CCN(CCCC(F)(F)F)CC1)O2 (single isomer, unassigned) [Compound 57] | ≤ 10 nM | – |
